Laboratory results published in patent US20150050299A1, “METHODS FOR ENHANCING IMMUNE RESPONSE” (priority 2010, published 2015).
Read-outs that look alike come from different tables or passages of the source.

Columns and labels:
[1] = test system: 4T1 breast cancer cells; conditions: mouse, in vivo; cited from earlier work
[2] = test system: L1210 cells; conditions: i.p. 5 mg/kg for 9 days; cited from earlier work
[3] = test system: squamous cell carcinomas (SCCs); assay type: in vivo; conditions: agent alone
Experimental: The combination therapy of polyamine biosynthesis/uptake inhibition was tested against the K6/ODC transgenic mouse murine squamous cell carcinoma (SCC) model recently described.^98 The K6/ODC model was developed to assess whether ODC overexpression was a contributing cause, or an effect of malignant transformation. […] While most skin tumorigenesis models yielded benign squamous papillomas as the predominant tumor type, when the K6/ODC transgene was expressed on the FVB/N strain background, the majority of tumors that developed were aggressive squamous cell carcinomas. These SCCs appeared as early as 5 weeks after treatment and in high multiplicities (up to four tumors per mouse), making this a very efficient model for SCC induction. Using this model, we were thus able to conclude that over-expression of ODC is a sufficient condition for tumor promotion in mouse skin.^99
We conducted an in vivo anti-tumor trial of DFMO combined with either the D-C16-acyl Lys-spm conjugate AMXT 1501 (FIG. 4) or the L-C16-alkyl AMXT 1569 analog (FIG. 5) in the K6/ODC SCC model.
The concentration of AMXT 1501 was 14 μg/ml, or an average daily dose of ˜50-65 μg (equivalent to ˜3 mg/kg/d). […] It is expected that great improvements in the oral bioavailability of AMXT 1501 would result from insightful drug formulation.

[4] = test system: UVB-induced skin cancer; conditions: 1% in drinking water for 3 weeks before UVB; untreated control 38%; cited from earlier work
[5] = test system: UV-induced tumor challenges; conditions: splenocytes from UV-irradiated treated mice; without treatment 20 of 24; cited from earlier work
[6] = test system: B16F1 cells; conditions: 0.5 to 2.0% oral; cited from earlier work
[7] = test system: iNOS protein translation; conditions: read-out: IC50, iNOS protein translation; RAW 264.7 cells; cited from earlier work
[8] = test system: iNOS protein translation; conditions: read-out: IC50, iNOS protein translation; peritoneal macrophages; cited from earlier work
[9] = test system: L1210 leukemia; conditions: cited from earlier work

Question: With `c1cc(CN2CCCNCCNCCCNCC2)ccc1CN1CCCNCCNCCCNCC1` [AMD3100, plerixafor] as the compound, how does the “growth of transplanted 4T1 cells” value [1] read?
Answer: Its value is “significantly reduced”.

Question: With `NCCCNCCCCNC(=O)[C@H](O)NC(=O)C[C@@H](O)CCCCN=C(N)N` [sperqualin] as the compound, how does the survival [2] read?
Answer: The survival was “more than 60 days”.

Question: With `NCCC[C@](N)(C(=O)O)C(F)F` [DFMO, α-difluoromethylornithine] as the compound, how does the “anti-tumor response to single agent” value [3] read?
Answer: Its value is “weak effect”.

Question: What about the “occurrence of skin cancer” value [4] of the same compound?
Answer: The value was 9%.

Question: And the “recipient mice in which tumors grew” value [5]?
Answer: The value was 2 of 24.

Question: What about the “macrophage mediated cytolysis of B16F1 cells” value [6] of the same compound?
Answer: The value was “two-fold augmented”.

Question: For `NCCCNCCCCNCCCN` [spermine], which IC50 [7] is on record?
Answer: Its IC50 is 9.2 µM.

Question: And the IC50 [8]?
Answer: Its IC50 is 9 µM.

Question: With `CCNCCCNCCCCCCCNCCCNCC` [BEPH, N,N′-bis[3-(ethylamino)-propyl]-1-7-heptane diamine] as the compound, how does the “outcome of L1210 leukemia” value ([9]; T-cell deficient nude mice) read?
Answer: Its value is “not curative”.

Question: And the “effect on tumor or spleen cell polyamine levels” value ([9]; at the doses used)?
Answer: The value was “no effect”.

Question: What about the “outcome of L1210 leukemia” value ([9]; immunocompetent C57BL mice) of the same compound?
Answer: Its value is “cured”.
